Values joined by “and” are separate entries in the source; they are usually repeats but may differ in a detail not shown here. Equal values may be shown once.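 Five compound concentrations were applied to cells in 96-well plates for 48 hours; endpoints were derived by simple linear interpolation of the resulting dose-response curve. The concentration for 50% growth inhibition is given as GI50. Definition used: TGI = concentration required for complete inhibition of growth.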
What was measured:
Assay in all cases: inhibition of tumour cell growth, NCI panel, 48 h
786-0 renal = system: 786-0 renal
A498 renal = system: A498 renal
ACHN renal = system: ACHN renal
BT-549 breast = system: BT-549 breast
CAKI-1 renal = system: CAKI-1 renal
DU-145 prostate = system: DU-145 prostate
EKVX NSCLC = system: EKVX NSCLC
HCT-116 colon = system: HCT-116 colon
HCT-15 colon = system: HCT-15 colon
HL-60(TB) leukemia = system: HL-60(TB) leukemia
HOP-62 NSCLC = system: HOP-62 NSCLC
HOP-92 NSCLC = system: HOP-92 NSCLC
HS 578T breast = system: HS 578T breast
IGROV1 ovarian = system: IGROV1 ovarian
K-562 leukemia = system: K-562 leukemia
KM12 colon = system: KM12 colon
LOX IMVI melanoma = system: LOX IMVI melanoma
MALME-3M melanoma = system: MALME-3M melanoma
MCF7 breast = system: MCF7 breast
MDA-MB-231 breast = system: MDA-MB-231 breast
MDA-MB-435 = system: MDA-MB-435
MOLT-4 leukemia = system: MOLT-4 leukemia
NCI-H226 lung = system: NCI-H226 lung
NCI/ADR-RES ovarian = system: NCI/ADR-RES ovarian
OVCAR-3 ovarian = system: OVCAR-3 ovarian
OVCAR-5 ovarian = system: OVCAR-5 ovarian
OVCAR-8 ovarian = system: OVCAR-8 ovarian
PC-3 prostate = system: PC-3 prostate
RPMI-8226 leukemia = system: RPMI-8226 leukemia
RXF 393 renal = system: RXF 393 renal
SF-268 CNS = system: SF-268 CNS
SF-295 CNS = system: SF-295 CNS
SF-539 CNS = system: SF-539 CNS
SK-MEL-2 melanoma = system: SK-MEL-2 melanoma
SK-MEL-28 melanoma = system: SK-MEL-28 melanoma
SK-MEL-5 melanoma = system: SK-MEL-5 melanoma
SK-OV-3 ovarian = system: SK-OV-3 ovarian
SN12C renal = system: SN12C renal
SNB-19 CNS = system: SNB-19 CNS
SNB-75 CNS = system: SNB-75 CNS
SW-620 colon = system: SW-620 colon
T-47D breast = system: T-47D breast
TK-10 renal = system: TK-10 renal
U251 CNS = system: U251 CNS
UACC-257 melanoma = system: UACC-257 melanoma
UACC-62 melanoma = system: UACC-62 melanoma
UO-31 renal = system: UO-31 renal
A549 NSCLC = system: A549 NSCLC
CCRF-CEM leukemia = system: CCRF-CEM leukemia
COLO 205 colon = system: COLO 205 colon
HCC-2998 colon = system: HCC-2998 colon
HT29 colon = system: HT29 colon
M14 melanoma = system: M14 melanoma
NCI-H23 lung = system: NCI-H23 lung
NCI-H460 lung = system: NCI-H460 lung
NCI-H522 lung = system: NCI-H522 lung
OVCAR-4 ovarian = system: OVCAR-4 ovarian

With `O=c1cc(-c2ccccc2)[nH]c2ccc(N3CCCC3)cc12` the TGI (786-0 renal) was greater than 52400 nM, the TGI (A498 renal) was greater than 100000 nM and the TGI (ACHN renal) was greater than 100000 nM. The TGI (BT-549 breast) was greater than 100000 nM, the TGI (CAKI-1 renal) was greater than 100000 nM and the TGI (DU-145 prostate) was greater than 100000 nM. It also gave a TGI (EKVX NSCLC) greater than 100000 nM, a TGI (HCT-116 colon) greater than 34800 nM and a TGI (HCT-15 colon) greater than 100000 nM. It also gave a TGI (HL-60(TB) leukemia) of less than 34.7 nM, a TGI (HOP-62 NSCLC) greater than 74200 nM and a TGI (HOP-92 NSCLC) greater than 100000 nM. For the same compound, the TGI (HS 578T breast) was greater than 100000 nM, the TGI (IGROV1 ovarian) was greater than 100000 nM and the TGI (K-562 leukemia) was greater than 100000 nM. For the same compound, the TGI (KM12 colon) was 198 nM, the TGI (LOX IMVI melanoma) was greater than 100000 nM and the TGI (MALME-3M melanoma) was greater than 100000 nM. For the same compound, the TGI (MCF7 breast) was greater than 100000 nM, the TGI (MDA-MB-231 breast) was greater than 100000 nM and the TGI (MDA-MB-435) was less than 11.4 nM. The TGI (MOLT-4 leukemia) was greater than 100000 nM, the TGI (NCI-H226 lung) was 76.1 nM and the TGI (NCI/ADR-RES ovarian) was greater than 100000 nM. The TGI (OVCAR-3 ovarian) was 26100 nM, the TGI (OVCAR-5 ovarian) was greater than 100000 nM and the TGI (OVCAR-8 ovarian) was greater than 57900 nM. The TGI (PC-3 prostate) was greater than 100000 nM, the TGI (RPMI-8226 leukemia) was greater than 100000 nM and the TGI (RXF 393 renal) was greater than 100000 nM. For the same compound, the TGI (SF-268 CNS) was greater than 100000 nM, the TGI (SF-295 CNS) was 20.1 nM and the TGI (SF-539 CNS) was 70.3 nM. It also gave a TGI (SK-MEL-2 melanoma) greater than 100000 nM, a TGI (SK-MEL-28 melanoma) greater than 100000 nM and a TGI (SK-MEL-5 melanoma) of 2160 nM. It also gave a TGI (SK-OV-3 ovarian) greater than 100000 nM, a TGI (SN12C renal) greater than 100000 nM and a TGI (SNB-19 CNS) greater than 100000 nM. The TGI (SNB-75 CNS) was greater than 100000 nM, the TGI (SW-620 colon) was greater than 100000 nM and the TGI (T-47D breast) was greater than 100000 nM. It also gave a TGI (TK-10 renal) greater than 100000 nM, a TGI (U251 CNS) greater than 46900 nM and a TGI (UACC-257 melanoma) greater than 100000 nM. For the same compound, the TGI (UACC-62 melanoma) was 85200 nM and the TGI (UO-31 renal) was greater than 100000 nM.

`C#CC(F)(F)[C@]1(O)CC[C@H]2[C@@H]3CCC4=CC(=O)CCC4=C3[C@@H](c3ccc(C4CC4)cc3)C[C@@]21C` was tested, and the GI50 (786-0 renal) was less than 10 nM, the TGI (786-0 renal) was less than 10.6 nM and the GI50 (A498 renal) was 495 nM and 593 nM. For the same compound, the TGI (A498 renal) was 1930 nM and 1740 nM, the GI50 (A549 NSCLC) was 400 nM and 470 nM and the TGI (A549 NSCLC) was 3910 nM and 7220 nM. The GI50 (BT-549 breast) was 1160 nM and 1280 nM, the TGI (BT-549 breast) was 2940 nM and 3570 nM and the GI50 (CAKI-1 renal) was 103 nM and < 17.1 nM. For the same compound, the TGI (CAKI-1 renal) was 633 nM and 74.5 nM, the GI50 (CCRF-CEM leukemia) was 17 nM and < 10 nM and the TGI (CCRF-CEM leukemia) was 43 nM and < 13.9 nM. The GI50 (COLO 205 colon) was 1790 nM and 1220 nM, the TGI (COLO 205 colon) was 11200 nM and 3590 nM and the GI50 (DU-145 prostate) was 814 nM and 2130 nM. For the same compound, the TGI (DU-145 prostate) was 6550 nM and 15400 nM, the GI50 (HCC-2998 colon) was 5600 nM and 3720 nM and the TGI (HCC-2998 colon) was 29900 nM and > 65600 nM. For the same compound, the GI50 (HCT-116 colon) was 3190 nM and 2900 nM, the TGI (HCT-116 colon) was 13200 nM and 19000 nM and the GI50 (HCT-15 colon) was 1550 nM and 1810 nM. For the same compound, the TGI (HCT-15 colon) was greater than 100000 nM, the GI50 (HL-60(TB) leukemia) was less than 10 nM and the TGI (HL-60(TB) leukemia) was 21.6 nM and < 10 nM. The GI50 (HOP-62 NSCLC) was 367 nM and 201 nM, the TGI (HOP-62 NSCLC) was 5440 nM and 1720 nM and the GI50 (HOP-92 NSCLC) was 16.7 nM and < 16.1 nM. For the same compound, the TGI (HOP-92 NSCLC) was 37.4 nM and < 25.3 nM, the GI50 (HS 578T breast) was 205 nM and 1320 nM and the TGI (HS 578T breast) was 2630 nM and 7340 nM. The GI50 (HT29 colon) was 42.8 nM and < 20 nM, the TGI (HT29 colon) was 171 nM and 184 nM and the GI50 (IGROV1 ovarian) was less than 11.4 nM. For the same compound, the TGI (IGROV1 ovarian) was less than 15.5 nM, the GI50 (K-562 leukemia) was 815 nM and 2210 nM and the TGI (K-562 leukemia) was 11700 nM and > 100000 nM. For the same compound, the GI50 (KM12 colon) was 21.4 nM and < 17.7 nM, the GI50 (LOX IMVI melanoma) was less than 10 nM and the TGI (LOX IMVI melanoma) was less than 10 nM. The GI50 (M14 melanoma) was 844 nM and 2780 nM, the TGI (M14 melanoma) was 2920 nM and 18800 nM and the GI50 (MALME-3M melanoma) was 43.6 nM and < 15.1 nM. For the same compound, the TGI (MALME-3M melanoma) was 94.6 nM and < 28 nM, the GI50 (MCF7 breast) was 1560 nM and 1160 nM and the TGI (MCF7 breast) was greater than 100000 nM. For the same compound, the GI50 (MDA-MB-435) was 4590 nM and 2250 nM, the TGI (MDA-MB-435) was 23900 nM and 10300 nM and the GI50 (MOLT-4 leukemia) was 1160 nM and 1620 nM. For the same compound, the TGI (MOLT-4 leukemia) was 4000 nM and 5000 nM, the GI50 (NCI-H226 lung) was 7790 nM and 3150 nM and the TGI (NCI-H226 lung) was 72900 nM and 11500 nM. For the same compound, the GI50 (NCI-H23 lung) was 24.2 nM and < 15.1 nM, the TGI (NCI-H23 lung) was 268 nM and < 41 nM and the GI50 (NCI-H460 lung) was 2380 nM and 2280 nM. For the same compound, the TGI (NCI-H460 lung) was 9900 nM and 9670 nM, the GI50 (NCI-H522 lung) was less than 10 nM and the TGI (NCI-H522 lung) was 17.4 nM and < 10 nM. For the same compound, the GI50 (NCI/ADR-RES ovarian) was 83 nM and 164 nM, the TGI (NCI/ADR-RES ovarian) was 2820 nM and 5550 nM and the GI50 (OVCAR-3 ovarian) was 15.9 nM and 24.5 nM. For the same compound, the TGI (OVCAR-3 ovarian) was 32.6 nM and 169 nM, the GI50 (OVCAR-4 ovarian) was 1010 nM and the TGI (OVCAR-4 ovarian) was greater than 100000 nM. For the same compound, the GI50 (OVCAR-5 ovarian) was 271 nM and 1280 nM, the TGI (OVCAR-5 ovarian) was 2270 nM and 5790 nM and the GI50 (PC-3 prostate) was 44.1 nM and 414 nM. For the same compound, the TGI (PC-3 prostate) was 313 nM and 2740 nM, the GI50 (RPMI-8226 leukemia) was 139 nM and 125 nM and the TGI (RPMI-8226 leukemia) was 1000 nM and 915 nM. The TGI (RXF 393 renal) was 2920 nM and 7000 nM, the GI50 (SF-268 CNS) was 54.1 nM and 97.1 nM and the TGI (SF-268 CNS) was 183 nM and 322 nM. For the same compound, the GI50 (SF-295 CNS) was 31.9 nM and < 10 nM, the TGI (SF-295 CNS) was 82.1 nM and < 10 nM and the GI50 (SF-539 CNS) was 20.7 nM and < 15.5 nM. For the same compound, the TGI (SF-539 CNS) was 45.8 nM and 31.7 nM, the GI50 (SK-MEL-2 melanoma) was 2650 nM and 2220 nM and the TGI (SK-MEL-2 melanoma) was 7740 nM and 6010 nM. For the same compound, the GI50 (SK-MEL-28 melanoma) was 5330 nM and 2310 nM, the TGI (SK-MEL-28 melanoma) was 17900 nM and 5960 nM and the GI50 (SK-MEL-5 melanoma) was 4050 nM and 3050 nM. The TGI (SK-MEL-5 melanoma) was 10700 nM and 8410 nM, the GI50 (SK-OV-3 ovarian) was 162 nM and 69.5 nM and the TGI (SK-OV-3 ovarian) was 312 nM and 215 nM. The GI50 (SN12C renal) was 933 nM and 2450 nM, the TGI (SN12C renal) was 8690 nM and 10500 nM and the GI50 (SNB-19 CNS) was 1440 nM and 3910 nM. For the same compound, the GI50 (SNB-75 CNS) was 147 nM, the TGI (SNB-75 CNS) was 437 nM and the GI50 (SW-620 colon) was 1250 nM and 2360 nM. For the same compound, the TGI (SW-620 colon) was 7440 nM and 12400 nM, the GI50 (T-47D breast) was less than 10 nM and the TGI (T-47D breast) was 59000 nM and 8400 nM. The GI50 (TK-10 renal) was 4550 nM and 2240 nM, the TGI (TK-10 renal) was 20900 nM and 8330 nM and the GI50 (U251 CNS) was 48 nM and 395 nM. The TGI (U251 CNS) was 234 nM and 2200 nM, the GI50 (UACC-257 melanoma) was 7720 nM and 6450 nM and the TGI (UACC-257 melanoma) was 71800 nM and > 100000 nM. For the same compound, the GI50 (UACC-62 melanoma) was 762 nM and 1420 nM, the TGI (UACC-62 melanoma) was 2360 nM and 4220 nM and the GI50 (UO-31 renal) was less than 10 nM. It also gave a TGI (UO-31 renal) of less than 10 nM.
